Laboratory results: PubChem BioAssay AID504675 (Southern Research Specialized Biocontainment Screening …, 2011)

System: E. coli UTI89 K1 capsule, phage K1F lysis, OD600
Assay: UTI89 protection from K1F phage killing – strain UTI89, C7 control, set 3, capsule biogenesis inhibitor project, dose response (AID 504675)
Settings: measured here: cytotoxicity test

First: COc1ccc2nc(NC(=O)c3ccc(F)cc3)sc2c1
Second: COc1ccc(C(=O)Nc2nc3ccc(OC)cc3s2)cc1
The CC50 of the first is lower: 21.7 µM for the first, greater than 300 µM for the second.

Going from `N=c1n(CCN2CCCC2)c2ccccc2n1CC(O)c1ccc(Cl)c(Cl)c1` (stereo not given) to `COc1cccc(-c2cc(C(=O)O)c3ccccc3n2)c1`, the CC50 rises from 9.38 µM to 78.3 µM (8.3-fold).

First: O=C(O)c1cc(-c2cccc(F)c2)nc2ccccc12
Second: COc1ccc2nc(NC(=O)c3ccccc3)sc2c1
The CC50 of the first is higher: greater than 300 µM for the first, 45.4 µM for the second.

Compared with `COc1ccc2nc(NC(=O)c3ccccc3OC)sc2c1`, `COc1cccc(C(=O)Nc2nc3ccc(OC)cc3s2)c1` is 2.9-fold lower in CC50: 66.8 µM for the first, 23.4 µM for the second.

`COc1ccc2nc(NC(=O)c3ccco3)sc2c1` and `COc1ccc2nc(NC(=O)c3cccs3)sc2c1` are within 1.5-fold of each other in CC50: 93.4 µM for the first, 104 µM for the second.
